Laboratory results taken from patent publication US20050261332A1, “Sulfonamides and uses thereof” (priority 2004, published 2005).

These molecules were tested against T1, GHS-R (Homo sapiens, UniProt Q92847) (assay: GHS-R competition binding assay (Ki of GHS-R antagonizing compounds)).
T1 construct: expressed in transfected cells; host or cells: COS-7 cells
Protocol: One exemplary binding assay is as follows: GHS-R expressing COS-7 cells cultured at a density of 1×10^5 cells per well so that binding is assayed in the range of about 5-8 % binding of the radioactive ligand. For example, the cells can express an endogenous nucleic acid encoding GHS-R or an exogenous nucleic acid encoding GHS-R. Cells transfected with an exogenous nucleic acid encoding GHS-R can be used, e.g., two days, after transfection. Competition binding experiments are performed for 3 hours at 4° C. using 25 pM of ^125I-ghrelin in 0.5 ml of 50 mM HEPES buffer, pH 7.4, supplemented with 1 mM CaCl2, 5 mM MgCl2, and 0.1% (w/v) bovine serum albumin, 40 mg/ml bacitracin. Non-specific binding can be determined as the binding in the presence of […] of unlabeled ghrelin. Cells are washed twice in 0.5 ml of ice-cold buffer and then lysed with 0.5-1 ml of lysis buffer (8 M Urea, 2% NP40 in 3 M acetic acid). After washing and lysis, the bound radioactivity is counted. Assays can be run in duplicate or triplicate, e.g., to provide statistical power.
Values of the dissociation and inhibition constants (Kd and Ki) can be estimated from competition binding experiments using the equation: Kd=IC50-L and Ki=IC50/(1+L/Kd), where L is the concentration of radioactive ligand. Bmax values can be estimated from competition binding experiments using the equation Bmax=B0 IC50/[ligand], where B0 is the specifically bound radioligand.

T1 sequence (Q92847 whole entry, species assumed): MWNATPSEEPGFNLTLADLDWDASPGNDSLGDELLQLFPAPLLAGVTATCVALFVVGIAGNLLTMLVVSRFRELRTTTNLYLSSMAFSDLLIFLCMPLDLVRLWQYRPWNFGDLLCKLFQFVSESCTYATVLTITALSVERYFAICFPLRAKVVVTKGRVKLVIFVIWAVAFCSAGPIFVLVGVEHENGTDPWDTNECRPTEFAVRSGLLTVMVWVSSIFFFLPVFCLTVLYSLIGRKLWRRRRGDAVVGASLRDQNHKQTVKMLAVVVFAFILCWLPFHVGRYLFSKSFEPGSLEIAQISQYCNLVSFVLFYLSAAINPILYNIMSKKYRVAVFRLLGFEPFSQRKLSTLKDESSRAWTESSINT

| Structure (SMILES) | Ki [µM] |
| --- | --- |
| CN(C)CCS(=O)(=O)N[C@H](COCc1ccccc1)C(=O)N1CCC2(CC1)CN(S(C)(=O)=O)c1ccccc12 [Compound 128, (R)-N-(3-(benzyloxy)-1-(1-(methylsulfonyl)spiro[indoline-3,4′-piperidine]-1′-yl)-1-oxopropan-2-yl)-2-(dimethylamino)ethanesulfonamide] | 0.1 to 1 |
| CN1CCN(CCS(=O)(=O)N[C@H](COCc2ccccc2)C(=O)N2CCC3(CC2)CN(S(C)(=O)=O)c2ccccc23)CC1 [Compound 129, (R)-N-(3-(benzyloxy)-1-(1-(methylsulfonyl)spiro[indoline-3,4′-piperidine]-1′-yl)-1-oxopropan-2-yl)-2-(4-methylpiperazin-1-yl)ethanesulfonamide] | > 1 |
| CCN(C)CCS(=O)(=O)N[C@H](COCc1ccccc1)C(=O)N1CCC2(CC1)CN(S(C)(=O)=O)c1ccccc12 [Compound 130, (R)-N-(3-(benzyloxy)-1-(1-(methylsulfonyl)spiro[indoline-3,4′-piperidine]-1′-yl)-1-oxopropan-2-yl)-2-(ethyl(methyl)amino)ethanesulfonamide] | 0.1 to 1 |
| CC(C)N(C)CCS(=O)(=O)N[C@H](COCc1ccccc1)C(=O)N1CCC2(CC1)CN(S(C)(=O)=O)c1ccccc12 [Compound 131, (R)-N-(3-(benzyloxy)-1-(1-(methylsulfonyl)spiro[indoline-3,4′-piperidine]-1′-yl)-1-oxopropan-2-yl)-2-(isopropyl(methyl)amino)ethanesulfonamide] | 0.1 to 1 |
| CCN(CC)CCS(=O)(=O)N[C@H](COCc1ccccc1)C(=O)N1CCC2(CC1)CN(S(C)(=O)=O)c1ccccc12 [Compound 132, (R)-N-(3-(benzyloxy)-1-(1-(methylsulfonyl)spiro[indoline-3,4′-piperidine]-1′-yl)-1-oxopropan-2-yl)-2-(diethylamino)ethanesulfonamide] | < 0.1 |
| CCN(CCS(=O)(=O)N[C@H](COCc1ccccc1)C(=O)N1CCC2(CC1)CN(S(C)(=O)=O)c1ccccc12)C(C)C [Compound 133, (R)-N-(3-(benzyloxy)-1-(1-(methylsulfonyl)spiro[indoline-3,4′-piperidine]-1′-yl)-1-oxopropan-2-yl)-2-(ethyl(isopropyl)amino)ethanesulfonamide] | > 1 |
| CS(=O)(=O)N1CC2(CCN(C(=O)[C@@H](COCc3ccccc3)NS(=O)(=O)CCN3CCC3)CC2)c2ccccc21 [Compound 134, (R)-2-(azetidin-1-yl)-N-(3-(benzyloxy)-1-(1-(methylsulfonyl)spiro[indoline-3,4′-piperidine]-1′-yl)-1-oxopropan-2-yl)ethanesulfonamide] | > 1 |
| CS(=O)(=O)N1CC2(CCN(C(=O)[C@@H](COCc3ccccc3)NS(=O)(=O)CCN3CCCCC3)CC2)c2ccccc21 [Compound 135, (R)-N-(3-(benzyloxy)-1-(1-(methylsulfonyl)spiro[indoline-3,4′-piperidine]-1′-yl)-1-oxopropan-2-yl)-2-(piperidin-1-yl)ethanesulfonamide] | 0.1 to 1 |
| CS(=O)(=O)N1CC2(CCN(C(=O)[C@@H](COCc3ccccc3)NS(=O)(=O)CCN3CCCC3)CC2)c2ccccc21 [Compound 136, (R)-N-(3-(benzyloxy)-1-(1-(methylsulfonyl)spiro[indoline-3,4′-piperidine]-1′-yl)-1-oxopropan-2-yl)-2-(pyrrolidin-1-yl)ethanesulfonamide] | 0.1 to 1 |
| CN1CCC(S(=O)(=O)N[C@H](COCc2ccccc2)C(=O)N2CCC3(CC2)CN(S(C)(=O)=O)c2ccccc23)CC1 [Compound 137, (R)-N-(3-(benzyloxy)-1-(1-(methylsulfonyl)spiro[indoline-3,4′-piperidine]-1′-yl)-1-oxopropan-2-yl)-1-methylpiperidine-4-sulfonamide] | < 0.1 |
| CS(=O)(=O)N1CC2(CCN(C(=O)[C@@H](COCc3ccccc3)NS(=O)(=O)CCN3CCOCC3)CC2)c2ccccc21 [Compound 138, (R)-N-(3-(benzyloxy)-1-(1-(methylsulfonyl)spiro[indoline-3,4′-piperidine]-1′-yl)-1-oxopropan-2-yl)-2-morpholinoethanesulfonamide] | > 1 |
| CC(C)(C)NCCS(=O)(=O)N[C@H](COCc1ccccc1)C(=O)N1CCC2(CC1)CN(S(C)(=O)=O)c1ccccc12 [Compound 139, (R)-N-(3-(benzyloxy)-1-(1-(methylsulfonyl)spiro[indoline-3,4′-piperidine]-1′-yl)-1-oxopropan-2-yl)-2-(tert-butylamino)ethanesulfonamide] | 0.1 to 1 |
| CC(C)NCCS(=O)(=O)N[C@H](COCc1ccccc1)C(=O)N1CCC2(CC1)CN(S(C)(=O)=O)c1ccccc12 [Compound 140, (R)-N-(3-(benzyloxy)-1-(1-(methylsulfonyl)spiro[indoline-3,4′-piperidine]-1′-yl)-1-oxopropan-2-yl)-2-(isopropylamino)ethanesulfonamide] | > 1 |
| CC(C)NCCCS(=O)(=O)N[C@H](COCc1ccccc1)C(=O)N1CCC2(CC1)CN(S(C)(=O)=O)c1ccccc12 [Compound 141, (R)-N-(3-(benzyloxy)-1-(1-(methylsulfonyl)spiro[indoline-3,4′-piperidine]-1′-yl)-1-oxopropan-2-yl)-3-(isopropylamino)propane-1-sulfonamide] | < 0.1 |
| CS(=O)(=O)N1CC2(CCN(C(=O)[C@@H](COCc3ccccc3)NS(=O)(=O)CCCN3CCOCC3)CC2)c2ccccc21 [Compound 142, (R)-N-(3-(benzyloxy)-1-(1-(methylsulfonyl)spiro[indoline-3,4′-piperidine]-1′-yl)-1-oxopropan-2-yl)-3-morpholinopropane-1-sulfonamide] | > 1 |
| CC(C)(C)NCCCS(=O)(=O)N[C@H](COCc1ccccc1)C(=O)N1CCC2(CC1)CN(S(C)(=O)=O)c1ccccc12 [Compound 143, (R)-N-(3-(benzyloxy)-1-(1-(methylsulfonyl)spiro[indoline-3,4′-piperidine]-1′-yl)-1-oxopropan-2-yl)-3-(tert-butylamino)propane-1-sulfonamide] | 0.1 to 1 |
| CS(=O)(=O)N1CC2(CCN(C(=O)[C@@H](COCc3ccccc3)NS(=O)(=O)CCN3C4CCCC3CC4)CC2)c2ccccc21 [Compound 144, N-((R)-3-(benzyloxy)-1-(1-(methylsulfonyl)spiro[indoline-3,4′-piperidine]-1′-yl)-1-oxopropan-2-yl)-2-(8-azabicyclo[3.2.1]octan-8-yl)ethanesulfonamide] | 0.1 to 1 |
| CN1C2CCC1CC(S(=O)(=O)N[C@H](COCc1ccccc1)C(=O)N1CCC3(CC1)CN(S(C)(=O)=O)c1ccccc13)C2 (stereo partly drawn) [Compound 145, N-((R)-3-(benzyloxy)-1-(1-(methylsulfonyl)spiro[indoline-3,4′-piperidine]-1′-yl)-1-oxopropan-2-yl)-8-methyl-8-azabicyclo[3.2.1]octane-3-sulfonamide] | > 1 |
| CS(=O)(=O)N1CC2(CCN(C(=O)[C@@H](COCc3ccccc3)NS(=O)(=O)CCCCl)CC2)c2ccccc21 [Compound 146, (R)-N-(3-(benzyloxy)-1-(1-(methylsulfonyl)spiro[indoline-3,4′-piperidine]-1′-yl)-1-oxopropan-2-yl)-3-chloropropane-1-sulfonamide] | < 0.1 |
| CN1CCC(S(=O)(=O)N[C@H](COCc2ccccc2)C(=O)N2CCC3(C=Cc4ccccc43)CC2)CC1 [Compound 147, (R)-N-(3-(benzyloxy)-1-oxo-1-(spiro[indene-1,4′-piperidine]-1′-yl)propan-2-yl)-1-methylpiperidine-4-sulfonamide] | 0.1 to 1 |
| CCN(CC)CCCS(=O)(=O)N[C@H](COCc1ccccc1)C(=O)N1CCC2(CC1)CN(S(C)(=O)=O)c1ccccc12 [Compound 148, (R)-N-(3-(benzyloxy)-1-(1-(methylsulfonyl)spiro[indoline-3,4′-piperidine]-1′-yl)-1-oxopropan-2-yl)-3-(diethylamino)propane-1-sulfonamide] | 0.1 to 1 |
| CN(C)CCCS(=O)(=O)N[C@H](COCc1ccccc1)C(=O)N1CCC2(CC1)CN(S(C)(=O)=O)c1ccccc12 [Compound 149, (R)-N-(3-(benzyloxy)-1-(1-(methylsulfonyl)spiro[indoline-3,4′-piperidine]-1′-yl)-1-oxopropan-2-yl)-3-(dimethylamino)propane-1-sulfonamide] | 0.1 to 1 |
| CS(=O)(=O)N1CC2(CCN(C(=O)[C@@H](COCc3ccccc3)NS(=O)(=O)CCCNC3CC3)CC2)c2ccccc21 [Compound 150, (R)-N-(3-(benzyloxy)-1-(1-(methylsulfonyl)spiro[indoline-3,4′-piperidine]-1′-yl)-1-oxopropan-2-yl)-3-(cyclopropylamino)propane-1-sulfonamide] | > 1 |
| CS(=O)(=O)N1CC2(CCN(C(=O)[C@@H](COCc3ccccc3)NS(=O)(=O)CCCN3CCCC3)CC2)c2ccccc21 [Compound 152, (R)-N-(3-(benzyloxy)-1-(1-(methylsulfonyl)spiro[indoline-3,4′-piperidine]-1′-yl)-1-oxopropan-2-yl)-3-(pyrrolidin-1-yl)propane-1-sulfonamide] | < 0.1 |
| NC(=O)c1ccccc1-c1ccc(CNC(=O)[C@@H](COCc2ccccc2)NS(=O)(=O)CCCCl)cc1 [Compound 153, (R)-4′-{[3-Benzyloxy-2-(3-chloro-propane-1-sulfonylamino)-propionylamino]-methyl}-biphenyl-2-carboxylic acid amide] | > 1 |
